How the values were obtained:
mice [1] = assay: Spontaneous locomotor activity in mice; assay type: in vivo; conditions: 10 mg/kg i.p., mice (FIG. 1)
Protocol: (§1) Male Non-Swiss Albino mice (Harlan Sprague-Dawley) were housed (4 mice/cage) in rooms with temperature and humidity controlled and water and food (Harlan Teklad) freely available. Mice were kept on a 12-hr light:dark cycle.
(§2) Plastic 20×20×30 cm activity cages were equipped with photocell beams (AccuScan Instruments). For spontaneous activity, 61KS19 (1, 3 and 10 mg/kg) was administered alone i.p. 30 min before the session. For hyperactivity experiments, mice were treated with 0.3 mg/kg dizocilpine, 3.0 mg/kg d-amphetamine or 3.0 mg/kg scopolamine i.p. 15 min before the session (15 min after 61KS19). Locomotor data were collected during a 15 min session without habituation in a lit room. Each dose combination was tested in a separate group of animals (n=8). Distance traveled (cm) was calculated and averaged followed by ANOVA and post-hoc Dunnett's t-test comparisons.

mice [2] = assay: Catalepsy (rod test) in mice; assay type: in vivo; conditions: mice (FIG. 5)
Protocol: as §1
A custom-built 8-mm rod that is raised 3.5 cm from the lab benchtop was used. 61KS19 (10 mg/kg) or haloperidol (1 mg/kg) were administered i.p. 60 min before the start of the session. The forepaws of each animal is placed on the rod and the time to step down is measured. If the animal steps off immediately, another attempt is made until the animal stays on for more than 10 sec or 10 attempts have been made. A maximum of 2 min is allowed at which time the animal is taken away from the rod and returned to the homecage. Each dose or dose combination was tested in a separate group of animals (n=6). Averages and standard errors were calculated and compared using an ANOVA and post-hoc Dunnett's t-tests.

M1 muscarinic receptor = molecular target: T1, M1 muscarinic receptor (Homo sapiens, UniProt P11229); assay: R-SAT functional assay, muscarinic M1 receptor; assay type: cell-based
T1 construct: expressed in transfected cells; host or cells: NIH-3T3 cells (ATCC CRL 1658)
T1 sequence (P11229 1-460): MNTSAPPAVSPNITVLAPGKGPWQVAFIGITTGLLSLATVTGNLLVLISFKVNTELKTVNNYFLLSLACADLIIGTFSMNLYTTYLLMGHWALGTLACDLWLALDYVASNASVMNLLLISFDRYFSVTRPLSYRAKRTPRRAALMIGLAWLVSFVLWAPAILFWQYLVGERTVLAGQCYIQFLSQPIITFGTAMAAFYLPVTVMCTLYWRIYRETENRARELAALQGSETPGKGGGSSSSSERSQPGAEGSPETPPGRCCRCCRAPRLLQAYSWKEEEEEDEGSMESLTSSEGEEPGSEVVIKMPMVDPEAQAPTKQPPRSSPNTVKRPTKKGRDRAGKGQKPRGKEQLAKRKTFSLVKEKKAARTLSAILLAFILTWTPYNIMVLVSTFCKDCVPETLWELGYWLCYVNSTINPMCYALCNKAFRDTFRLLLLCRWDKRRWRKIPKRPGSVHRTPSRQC
Protocol: (§3) The M1 and M4 muscarinic receptor subtypes were cloned substantially as described by Bonner et al., (1987) Science […] p. 527 and Bonner et al, (1988) Neuron 1, p. 403. R-SAT assays were carried out substantially as described in U.S. Pat. No. 5,707,798 and by Braüner-Osbome, H. B. and Brann, M. R. (1995), Eur. J. Pharmacol. 295:93-102. NIH-3T3 cells (available from the American Type Culture Collection as ATCC CRL 1658) were transfected with plasmid DNA encoding the m1 and m4 receptors and plasmid DNA encoding β-galactosidase. Transfected cells were grown in the presence of between 1 nM and 40 μM of the test compound for 5 days. On day 5, the cells were lysed using 0.5% nonidet-P and β-galactosidase expression was quantified using the chromogenic substrate o-nitrophenyl-p-D-galactoside (ONGP).
(§4) Data were normalized relative to the maximum response of the cells to the muscarinic agonist carbachol, and the following equation was fitted to the data: response=minimum+(maximum−minimum)/(1+([ligand]/EC50)) % Efficacy was defined as (maximum−minimum)/(maximum response of cells to carbachol). pEC50=−log (EC50). Where data gave a bell-shaped curve, “maximum” was defined as the highest observed response.

mice [3] = assay: Scopolamine-induced hyperactivity in mice; assay type: in vivo; conditions: 1, 3 and 10 mg/kg i.p., mice (FIG. 3)
Protocol: as §1, §2

[4] = molecular target: T2, human dopamine D2 receptor (Homo sapiens, UniProt P14416); assay: [3H]-Spiperone radioligand binding to D2 receptor membranes; conditions: tSA cell membranes, 150 pM [3H]-Spiperone; read-out: D2 [3H]Spiperone pIC50 (converted)
T2 construct: expressed in transfected cells; host or cells: tSA cells
T2 sequence (P14416 1-414 isoform P14416-2): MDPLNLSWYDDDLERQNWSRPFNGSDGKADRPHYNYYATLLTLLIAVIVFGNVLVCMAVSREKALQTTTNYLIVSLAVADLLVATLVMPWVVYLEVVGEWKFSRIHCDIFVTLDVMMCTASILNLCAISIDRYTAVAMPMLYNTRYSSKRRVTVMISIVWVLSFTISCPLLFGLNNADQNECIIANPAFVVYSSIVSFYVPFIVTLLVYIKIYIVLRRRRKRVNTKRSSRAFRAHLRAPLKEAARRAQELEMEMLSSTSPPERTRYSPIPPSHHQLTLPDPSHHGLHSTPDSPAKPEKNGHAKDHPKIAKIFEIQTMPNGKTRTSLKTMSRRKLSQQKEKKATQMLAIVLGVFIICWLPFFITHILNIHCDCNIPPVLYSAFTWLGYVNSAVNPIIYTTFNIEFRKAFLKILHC
Protocol: The D2 dopamine receptor subtype was cloned substantially as described by Stormann, Gdula, Weiner and Brann, 1990 [Mol Pharmacol 37, 1-6]. Cell membranes expressing the D2 receptor were prepared by transfecting tSA cells (Chahine, M., Bennet, P. B., George, A. L., Horn, R. (1994) Pfluegers Arch. 427, 136-142) with 10 μg plasmid DNA encoding the human dopamine D2 receptor and 40 μl Superfect (Qiagen). The cells were harvested 48 hours and transfection and membranes were prepared by homogenizing the cells using a Polytron harvester in 20 mM Hepes, 10 mM EDTA, pH 7.4. The homogenate was centrifuged for 30 minutes at 37,000 g. The pellet was homogenized again in 60 ml 20 mM Hepes, 5 mM EDTA. The homogenate was centrifuged for 30 minutes at 37,000 g. The supernatant was discarded. The pellet was homogenized again in 10 ml 20 mM Hepes, 1 mM EDTA. The resultant membranes were frozen at −80° C.
The membranes were combined with 150 pM [^3H]-Spiperone (Amersham-Pharmacia, 107 Ci/mmol) and ligand concentrations between 1 nM and 10 μM, or haloperidol concentrations between 0.1 nM and 1 μM in 460 μl 20 mM Hepes, 1 mM EDTA, 0.1% (w/v) bovine serum albumin. Nonspecific binding was defined as binding in the presence of 1 μM haloperidol. The membranes were incubated for 4 hours at 37° C., and then filtered onto Packard GFB Filterplates using a Packard harvester. The membranes were dried and 50 μl Microscint (Packard) was added to each well. The amount of bound radioligand was quantified using a Packard Topcount scintillation counter.
Data were normalized relative to the maximum inhibition of [^3H]-Spiperone binding by 1 μM haloperidol, and the following equation was fitted to the data: % inhibition=minimum+(maximum−minimum)/(1+([ligand]/[IC50])) % inhibition was defined as (maximum−minimum)/(maximum response of cells to haloperidol). pIC50=−log (IC50). NT=not tested. Results

mice [5] = assay: Amphetamine-induced hyperactivity in mice; assay type: in vivo; conditions: 3 and 10 mg/kg i.p., mice (FIG. 2)
Protocol: as §1, §2

mice [6] = assay: MK-801 (dizocilpine)-induced hyperactivity in mice; assay type: in vivo; conditions: 10 mg/kg i.p., mice (FIG. 4)
Protocol: as §1, §2

M4 muscarinic receptor = molecular target: T3, M4 muscarinic receptor (Homo sapiens, UniProt P08173); assay: R-SAT functional assay, muscarinic M4 receptor; assay type: cell-based
T3 construct: expressed in transfected cells; host or cells: NIH-3T3 cells (ATCC CRL 1658)
T3 sequence (P08173 1-479): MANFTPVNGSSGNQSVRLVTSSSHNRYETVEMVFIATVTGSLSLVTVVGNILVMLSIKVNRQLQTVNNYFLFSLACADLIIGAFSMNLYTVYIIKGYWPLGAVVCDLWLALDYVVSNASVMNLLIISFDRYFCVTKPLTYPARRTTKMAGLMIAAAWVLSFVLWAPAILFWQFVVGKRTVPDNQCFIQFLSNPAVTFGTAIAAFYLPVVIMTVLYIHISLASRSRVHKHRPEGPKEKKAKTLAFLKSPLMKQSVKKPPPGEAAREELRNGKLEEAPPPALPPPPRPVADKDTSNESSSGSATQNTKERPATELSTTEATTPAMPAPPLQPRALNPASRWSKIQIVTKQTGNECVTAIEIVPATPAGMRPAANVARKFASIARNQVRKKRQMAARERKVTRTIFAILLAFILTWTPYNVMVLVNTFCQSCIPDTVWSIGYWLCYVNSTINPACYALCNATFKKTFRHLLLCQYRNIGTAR
Protocol: as §3, §4

dopamine receptors = conditions: Shannon et al.; cited from earlier work
[7] = human, in vivo; cited from earlier work

CCCCC1CCN(CCCn2c(=O)[nH]c3ccccc32)CC1 [Compound 61KS-19, 1-(3-[4-Butylpiperidino]propyl)-1,3-dihydrobenzimidazol-2-one]
spontaneous locomotor activity (mice [1]): reduction of spontaneous locomotor activity | induction of catalepsy (mice [2]; 10 mg/kg i.p.): failed to induce catalepsy | binding efficacy for the M1 receptor subtype (M1 muscarinic receptor): high binding efficacy | Emax (M1 muscarinic receptor; NIH3T3, R-SAT, transfected NIH-3T3 cells, relative to maximum response to carbachol, read-out: M1 % Efficacy): 115% | EC50 (M1 muscarinic receptor; R-SAT, transfected NIH-3T3 cells, read-out: M1 pEC50 (converted)): 25.1 nM | scopolamine-induced hyperactivity (mice [3]): reduction of scopolamine-induced hyperactivity | IC50 [4]: 794 nM | amphetamine-induced hyperactivity (mice [5]): reduction of amphetamine-induced hyperactivity | MK-801-induced hyperactivity (mice [6]): reduction of MK-801-induced hyperactivity | binding efficacy for the M4 receptor subtype (M4 muscarinic receptor): high binding efficacy | Emax (M4 muscarinic receptor; NIH3T3, R-SAT, transfected NIH-3T3 cells, relative to maximum response to carbachol, read-out: M4 % Efficacy): 141% | EC50 (M4 muscarinic receptor; R-SAT, transfected NIH-3T3 cells, read-out: M4 pEC50 (converted)): 31.6 nM

CCCCCCOc1nsnc1C1=CCCN(C)C1 [Xanomeline]
affinity for dopamine receptors (dopamine receptors): little or no affinity for dopamine receptors

O=C(CCCN1CCC(O)(c2ccc(Cl)cc2)CC1)c1ccc(F)cc1 [haloperidol, reference compound]
induction of catalepsy (mice [2]; haloperidol 1 mg/kg i.p.): unlike haloperidol

Nc1c2c(nc3ccccc13)CCCC2 [tacrine]
patients with elevated liver transaminases [7]: about 30%

Reference: patent publication US7291611B2, “Benzimidazolidinone derivatives as muscarinic agents” (ACADIA Pharmaceuticals Inc., priority 2001, dated 2007)
